Several values for one entry are separate records, joined by “and”; a condition that tells them apart may be missing. Equal values may be shown once.
Assays:
[1] = test system: glioblastoma multiforme cell nuclei; assay: In vivo biodistribution of Gd-DTPA in glioblastoma multiforme patients (ICP-MS, spectromicroscopy); parameters: species or system human; details: six glioblastoma multiforme patients injected with Gd-DTPA before tumor excision
Source text: The present inventors also tested the in vivo biodistribution of Gd-DTPA in six glioblastoma multiforme patients injected with Gd-DTPA before tumor excision. The tumors were frozen and sectioned for ICP-MS and Microscope à Emission de Photoélectrons par Illumination Synchrotronique de Type Onduleur analysis. Evidence for Gd intracellular localization was found within the tumors in all six cases. However, the gadolinium localized in only 6.1% of the cell nuclei analyzed.

[2] = test system: F98 brain glioma; details: intracranial infusion one day before 78.8 keV photons, 15 Gy single dose; cited from earlier work
[3] = test system: human glioblastoma multiforme cell lines; assay: Cell appearance after exposure in culture; format: cell-based; details: 100 μmol/L, up to 72 hours
Experimental: (§1) Cell Culture and Exposure to Motexafin Gadolinium: Four well-established human glioblastoma multiforme cell lines were used for the in vitro studies: T98G (22), U87 (23), MO59K (24), and TB10 (9, 25). Cells were grown on precut 10 mm×10 mm silicon wafers (Silson, Northhampton, United Kingdom) for X-PEEM spectromicroscopy; on 1 mm×1 mm Si3N4 windows, 100 nm thick (Silson) for STXM spectromicroscopy; on tissue culture-treated polystyrene slides for confocal microscopy; and in Petri dishes for ICP-MS analysis. Subconfluent cultures were exposed to motexafin gadolinium (Pharmacyclics, Sunnyvale, Calif.), formulated at 2.3 mg/mL in 5% aqueous mannitol, and added to the culture medium to a final concentration of 100 μmol/L. Six different exposure times ranging from 0 to 72 hours were used for the ICP-MS time course measurements. For all microscopy experiments exposure times were kept constant at 72 hours. The cell appearance was not altered by motexafin gadolinium exposure.

[4] = ICP-MS of Gd in tissue and plasma of glioblastoma multiforme patients; format: in vivo, human
Experimental: Tissue samples from three glioblastoma multiforme patients were also analyzed with ICP-MS (Table 1). These were collected from glioblastoma multiforme tissue and plasma for patients 1 and 2, and from tumor necrotic and uninvolved brain areas for the postmortem patient 3. All gadolinium concentrations were normalized to the measured tissue weight and volume. […]

[5] = test system: TB10, MO59K and T98G cells; assay: Confocal fluorescence microscopy of motexafin gadolinium-related fluorescence; format: cell-based, human; details: n=481, 100 μmol/L, 72 hours
Experimental: Cell Culture and Exposure to Motexafin Gadolinium: Four well-established human glioblastoma multiforme cell lines were used for the in vitro studies: T98G (22), U87 (23), MO59K (24), and TB10 (9, 25). Cells were grown on precut 10 mm×10 mm silicon wafers (Silson, Northhampton, United Kingdom) for X-PEEM spectromicroscopy; on 1 mm×1 mm Si3N4 windows, 100 nm thick (Silson) for STXM spectromicroscopy; on tissue culture-treated polystyrene slides for confocal microscopy; and in Petri dishes for ICP-MS analysis. […]
Confocal Microscopy: Three of the four cell lines (TB10, MO59K, and T98G) were analyzed using a Bio-Rad (Richmond, Calif.) MRC 1024ES confocal microscope. This instrument can simultaneously measure the fluorescence from three channels, with excitation wavelengths from the three lines of a krypton/argon laser and emission through three independent barrier filters. […]
The aperture was set for minimal optical section thickness, and laser power and photodetector gain were set to image cell fluorescence within the 8-bit grayscale range of the photodetector. Five consecutive optical sections were obtained vertically through the cells to verify that motexafin gadolinium fluorescence originated from the nucleus and not only from the cytoplasm above or below the nucleus.

[6] = test system: T98G cells; assay: STXM spectromicroscopy of intranuclear Gd; format: cell-based, human; details: 34 T98G cells, 100 μmol/L, 72 hours
Experimental: as §1
(§2) After exposure to motexafin gadolinium, the cell cultures on Si substrates for X-PEEM analysis were washed three times with PBS solution to remove free Gd, fixed in 4% paraformaldehyde in PBS for 20 minutes, double-washed in Milli-Q-water, and air dried. At this point, some cell cultures were sputtered with 3-kV argon ions at 10^−5 Torr for 10 minutes; others were not. Sputtering removes the topmost portion of the cell to reveal the inner nuclear compartment of fixed cells (26). Sputtered and unsputtered cells were then ashed in UV/O3 for 140 hours (27). Parallel cultures were run and treated identically for ICP-MS measurements of the bulk Gd concentration. Cell cultures for STXM analysis on Si3N4 windows, after motexafin gadolinium exposure, were washed, fixed, washed, and air-dried. […]
(§3) STXM Spectromicroscopy Analysis: The STXM instrument on beamline 11.0.2 at the Advanced Light Source in Berkeley uses an undulator source and is optimized for the Gd3d absorption energy. […] Three cell cultures were analyzed, containing 34 T98G cells, 27 MO59K cells, and 139 TB10 cells, respectively. […]

[7] = test system: TB10 cells; assay: STXM spectromicroscopy of intranuclear Gd; format: cell-based, human; details: 139 TB10 cells, 100 μmol/L, 72 hours
Experimental: as §1, §2, §3

[8] = test system: MO59K cells; assay: STXM spectromicroscopy of intranuclear Gd; format: cell-based, human; details: 27 MO59K cells, 100 μmol/L, 72 hours
Experimental: as §1, §2, §3

[9] = test system: TB10 cells; assay: X-PEEM (SPHINX) spectromicroscopy of intranuclear Gd; format: cell-based, human
Experimental: as §1
as §2, with “(27).” for “(27). Parallel cultures were run and treated identically for ICP-MS measurements of the bulk Gd concentration. Cell cultures for STXM analysis on Si3N4 windows, after motexafin gadolinium exposure, were washed, fixed, washed, and air-dried.”
X-PEEM Spectromicroscopy Analysis: X-PEEM spectromicroscopy analysis was done using the Spectromicroscope for Photoelectron Imaging of Nanostructures with X-rays (SPHINX) instrument (Elmitec GmbH, Clausthal, Germany), installed on the HERMON beamline at the Synchrotron Radiation Center (Madison, Wis.). […] Cell and tissue ashing increases gadolinium concentration by a factor of 10; therefore, the detection limit was on the order of ≦100 ppm in all cells analyzed. […]

[10] = test system: T98G, MO59K and TB10 cells; assay: STXM spectromicroscopy of intranuclear Gd, all cells analyzed; format: cell-based, human; details: overall, n=200
Experimental: as §1, with “exposure. […]” for “exposure.”
as §3

O=C([O-])CN(CCN(CC(=O)[O-])CC(=O)O)CCN(CC(=O)[O-])CC(=O)O.[Gd+3] [Gd-DTPA, gadolinium diethylenetriaminepentaacetic acid]
percentage of cell nuclei analyzed in which gadolinium localized [1]: 6.1%

N.N.[Cl][Pt][Cl] [cis-platinum]
survival rate at one year [2]: 34%

motexafin gadolinium
cell appearance [3]: not altered | [Gd] ([4]; Patient 1, Plasma, 2:30 hrs, single dose 10 mg/kg): 3.415 ppm | [Gd] ([4]; Patient 1, Plasma, 5 min, single dose 10 mg/kg): 12.973 ppm | [Gd] ([4]; Patient 1, Plasma, 45 min, single dose 10 mg/kg): 7.349 ppm | [Gd] ([4]; Patient 1, Plasma, 3 hrs, single dose 10 mg/kg): 4.079 ppm | [Gd] ([4]; Patient 1, Plasma, 24 hrs, single dose 10 mg/kg): 1.700 ppm | [Gd] ([4]; Patient 1, Tumor, 2:30 hrs, single dose 10 mg/kg): 7.266 ppm | [Gd] ([4]; Patient 1, Tumor, 3 hrs, single dose 10 mg/kg): 2.475 ppm | [Gd] ([4]; Patient 2, Plasma, 1:14 hrs, single dose 10 mg/kg): 6.536 ppm | [Gd] ([4]; Patient 2, Plasma, 1:30 hrs, single dose 10 mg/kg): 6.309 ppm | [Gd] ([4]; Patient 2, Plasma, 5 min, single dose 10 mg/kg): 14.043 ppm | [Gd] ([4]; Patient 2, Plasma, 45 min, single dose 10 mg/kg): 8.143 ppm | [Gd] ([4]; Patient 2, Plasma, 3 hrs, single dose 10 mg/kg): 5.109 ppm | [Gd] ([4]; Patient 2, Plasma, 24 hrs, single dose 10 mg/kg): 1.770 ppm | [Gd] ([4]; Patient 2, Tumor, 1:11 hrs, single dose 10 mg/kg): 29.728 ppm | [Gd] ([4]; Patient 2, Tumor, 1:18 hrs, single dose 10 mg/kg): 19.580 ppm | [Gd] ([4]; Patient 2, Tumor, 45 min, single dose 10 mg/kg): 22.589 ppm | [Gd] ([4]; Patient 3 (autopsy), Necrosis within tumor, 57 days after the last of multiple doses): 2.144 ppm | [Gd] ([4]; Patient 3 (autopsy), Tumor, 57 days after the last of multiple doses, listed as Motexafin-Gd): 8.542 ppm and 8.022 ppm | percentage of cells exhibiting motexafin gadolinium-related fluorescence in cytoplasm and nuclei [5]: 100% | percentage of cells containing gadolinium in their nuclei [6]: 90% | percentage of cells containing gadolinium in their nuclei [7]: 88% | percentage of cells containing gadolinium in their nuclei [8]: 96% | percentage of Gd-containing nuclei ([9]; TB10, after sputtering (72 cells)): 88% | percentage of Gd-containing nuclei ([9]; TB10, before sputtering (unsputtered, 108 cells)): 92% | percentage of cells with at least one gadolinium pixel in the nucleus ([9]; TB10, n=180, 100 μmol/L, 72 hours): 90% | percentage of cells with at least one gadolinium pixel in their nuclei [10]: 90%

Reference: patent US20070225268A1, “METHOD TO TREAT NEOPLASMS VIA GADOLINIUM STEREOTACTIC SYNCHROTRON RADIATION” (priority 2005, published 2007)
